Results on seven compounds are retold here after PubChem BioAssay (NCI).

Some test systems named below: PC-3 prostate; TK-10 renal; HL-60(TB) leukemia; MDA-MB-435; SK-MEL-5 melanoma; SK-MEL-28 melanoma; OVCAR-3 ovarian; HCT-116 colon; NCI/ADR-RES ovarian; OVCAR-8 ovarian.
Common to all, as to assay: NCI-60 cell line screen, 48 h

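The compound was tested at five concentrations on cells cultured in 96-well plates, with a 48-hour exposure period. GI50 = concentration required for 50% inhibition of growth. Definition used: TGI = concentration required for complete inhibition of growth.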

With `CCCCCCCC(=O)Nc1nc2[nH]c(CN3CCN(Cc4cccc(I)c4)CC3)c(CN3CCN(Cc4cccc(I)c4)CC3)c2c(=O)[nH]1`, the GI50 in the assay with PC-3 prostate is 0.837 µM; with TK-10 renal, 0.828 µM; in the assay on HL-60(TB) leukemia it was 0.924 µM; with MDA-MB-435, 0.823 µM; with SK-MEL-5 melanoma, 0.973 µM; in the assay with SK-MEL-28 melanoma it was 0.937 µM. For the same compound, the GI50 is 0.879 µM in the assay with OVCAR-3 ovarian, 0.848 µM in the assay with HCT-116 colon, 0.882 µM with NCI/ADR-RES ovarian and 1.04 µM in the assay with OVCAR-8 ovarian. Further, the TGI in the assay on PC-3 prostate is 1.63 µM; with TK-10 renal, 1.62 µM; in the assay with HL-60(TB) leukemia it was 2.27 µM; with MDA-MB-435, 1.55 µM; in the assay with SK-MEL-5 melanoma, 1.9 µM; with SK-MEL-28 melanoma it was 1.7 µM. For the same compound, the TGI with OVCAR-3 ovarian stood at 1.62 µM; in the assay with HCT-116 colon it was 1.59 µM; in the assay with NCI/ADR-RES ovarian, 1.74 µM; in the assay with OVCAR-8 ovarian it was 2.25 µM.
Consider `COC(=O)[C@@H](C)C[C@H](Cc1ccc(F)cc1)NC(=O)c1csc([C@@H](C[C@H](C(C)C)N(C)C(=O)[C@@H](NC(=O)[C@H]2CCCCN2C)C2CC2)OC(C)=O)n1`, for which the GI50 was 0.415 µM in the assay with PC-3 prostate; over 13.8 µM with TK-10 renal; 0.054 µM with HL-60(TB) leukemia; 0.0194 µM in the assay with MDA-MB-435; 0.0957 µM in the assay on SK-MEL-5 melanoma; 1.05 µM in the assay on SK-MEL-28 melanoma. The GI50 in the assay on OVCAR-3 ovarian is 0.0723 µM; with HCT-116 colon it was 0.116 µM; in the assay on NCI/ADR-RES ovarian, 6.88 µM; with OVCAR-8 ovarian it was 0.537 µM. The TGI with PC-3 prostate is over 25 µM; in the assay on TK-10 renal, over 25 µM; in the assay on MDA-MB-435, 0.109 µM; in the assay on SK-MEL-5 melanoma it was 1.46 µM; in the assay on SK-MEL-28 melanoma, over 25 µM; in the assay with OVCAR-3 ovarian, 0.633 µM. The TGI was over 9.49 µM with HCT-116 colon, over 25 µM in the assay on NCI/ADR-RES ovarian and over 25 µM in the assay with OVCAR-8 ovarian.
For the compound `N[C@@H](Cc1c[nH]c2ccccc12)C(=O)NC1CCN(Cc2c[nH]c3ccc(Cl)cc23)CC1`, the GI50 with PC-3 prostate was 6.01 µM; in the assay with TK-10 renal it was 13.4 µM; in the assay on HL-60(TB) leukemia it was 7.04 µM; in the assay with MDA-MB-435, 5.99 µM; in the assay with SK-MEL-5 melanoma, 13.1 µM; in the assay with SK-MEL-28 melanoma, 1.99 µM. For the same compound, the GI50 in the assay with OVCAR-3 ovarian was 10.5 µM; in the assay with HCT-116 colon, 3.87 µM; in the assay with NCI/ADR-RES ovarian, 65.3 µM; in the assay on OVCAR-8 ovarian, 15.1 µM. The TGI with PC-3 prostate amounted to 19.9 µM; with TK-10 renal, 27.2 µM; in the assay with HL-60(TB) leukemia, 24.4 µM; with MDA-MB-435 it was 18.7 µM; in the assay with SK-MEL-5 melanoma it was 25.9 µM; in the assay on SK-MEL-28 melanoma, 4.48 µM. For the same compound, the TGI was 22.5 µM in the assay on OVCAR-3 ovarian, 12.6 µM with HCT-116 colon, over 100 µM in the assay with NCI/ADR-RES ovarian and 29.6 µM in the assay on OVCAR-8 ovarian.
Take `COc1ccc2cc(C(=O)N3CCC([C@@H](C)C(=O)NCc4ccc5c(c4)OCO5)CC3)[nH]c2c1`: the GI50 in the assay with PC-3 prostate was over 100 µM; in the assay with TK-10 renal it was over 100 µM; in the assay on HL-60(TB) leukemia, over 100 µM; in the assay with MDA-MB-435 it was 51.2 µM; in the assay on SK-MEL-5 melanoma it was over 100 µM; in the assay on SK-MEL-28 melanoma, over 100 µM. In addition, the GI50 is over 100 µM in the assay on OVCAR-3 ovarian, over 100 µM in the assay with HCT-116 colon, over 100 µM in the assay on NCI/ADR-RES ovarian and 48.4 µM with OVCAR-8 ovarian. Moreover, the TGI in the assay on PC-3 prostate, with TK-10 renal, in the assay on HL-60(TB) leukemia, in the assay on MDA-MB-435, with SK-MEL-5 melanoma and in the assay on SK-MEL-28 melanoma was over 100 µM each time. Moreover, the TGI with OVCAR-3 ovarian, in the assay on HCT-116 colon, in the assay on NCI/ADR-RES ovarian and in the assay with OVCAR-8 ovarian was over 100 µM in each case.
In the case of `NC(=O)c1ccc(I)c([N+](=O)[O-])c1`, the GI50 is over 100 µM in the assay with PC-3 prostate; over 100 µM in the assay on TK-10 renal; 29.9 µM with HL-60(TB) leukemia; over 75.6 µM in the assay on MDA-MB-435; over 100 µM in the assay on SK-MEL-5 melanoma; 98.7 µM in the assay on SK-MEL-28 melanoma. Moreover, the GI50 was 55 µM in the assay with OVCAR-3 ovarian, over 100 µM in the assay with HCT-116 colon, over 100 µM with NCI/ADR-RES ovarian and over 100 µM in the assay with OVCAR-8 ovarian. Besides, the TGI in the assay with PC-3 prostate is over 100 µM; in the assay with TK-10 renal, over 100 µM; with HL-60(TB) leukemia, over 95.7 µM; in the assay with MDA-MB-435, over 100 µM; in the assay with SK-MEL-5 melanoma, over 100 µM; in the assay on SK-MEL-28 melanoma, over 100 µM. For the same compound, the TGI in the assay on OVCAR-3 ovarian, with HCT-116 colon, in the assay with NCI/ADR-RES ovarian and in the assay with OVCAR-8 ovarian was over 100 µM in each case.
Take `COc1ccc(OC)c(-c2cc(-c3ccc(Cl)cc3)nn2-c2ccccc2)c1`: the GI50 in the assay on PC-3 prostate is 24.2 µM; in the assay with TK-10 renal, 26.1 µM; with HL-60(TB) leukemia, 35.9 µM; with MDA-MB-435, 18.3 µM; in the assay on SK-MEL-5 melanoma, 42.2 µM; in the assay on OVCAR-3 ovarian, 23.7 µM. Besides, the results for the GI50 with NCI/ADR-RES ovarian and in the assay on OVCAR-8 ovarian were 15.8 µM and 24.4 µM, respectively. Besides, the TGI in the assay with PC-3 prostate is over 100 µM; in the assay with TK-10 renal it was 88.2 µM; in the assay with HL-60(TB) leukemia it was over 100 µM; in the assay with MDA-MB-435 it was 46.1 µM; in the assay with SK-MEL-5 melanoma, over 100 µM; with OVCAR-3 ovarian it was 46.7 µM. Moreover, the TGI stood at 60.9 µM in the assay with NCI/ADR-RES ovarian and 93.9 µM with OVCAR-8 ovarian.
Regarding `C/C(COc1ccc2oc(-c3ccccc3)cc(=O)c2c1)=N\O`, the GI50 with PC-3 prostate was 26.6 µM; with TK-10 renal it was 22.6 µM; with HL-60(TB) leukemia it was 74.5 µM; in the assay with MDA-MB-435, 0.556 µM; in the assay with SK-MEL-28 melanoma, 23.1 µM; with OVCAR-3 ovarian it was 7.39 µM. The GI50 in the assay on HCT-116 colon was 25.3 µM; in the assay with NCI/ADR-RES ovarian, 36 µM; with OVCAR-8 ovarian it was over 100 µM. Further, the TGI in the assay with PC-3 prostate is 70.5 µM; with TK-10 renal, 94.7 µM; in the assay on HL-60(TB) leukemia, over 100 µM; in the assay with MDA-MB-435, 2.94 µM; in the assay with SK-MEL-28 melanoma, over 100 µM; in the assay on OVCAR-3 ovarian it was 54.2 µM. Besides, the TGI with HCT-116 colon, in the assay on NCI/ADR-RES ovarian and in the assay with OVCAR-8 ovarian was over 100 µM in each case.
